Tests used:
CMV pp65 specific CTLs = assay: CMV pp65 specific recall CTL effector function (IFN-γ, TNF-α, IL-2 secretion, CD107a expression); assay type: cell-based, human
Method: (§1) PME-CD40L DCs derived from HLA-A2-positive donors and transfected with antigen-encoding mRNAs were co-cultured with purified CD8^+ T cells. All co-cultures were performed in R-10 media. CD8^+ T cells were purified using the CD8+ T Cell Negative Selection Kit II (Miltenyi Biotec) from non-adherent cells harvested from the monocyte adherence step. The CD8^+ cells were mixed with DCs at a 10:1 ratio and incubated in the presence of 0.2 µg/mL IL-2 and 10 ng/mL IL-7 (R&D Systems). DC/T cell co-cultures were re-stimulated on day 7 and supplemented with 20 units/mL IL-2 plus 10 ng/mL IL-7. Induction of primary immune responses to MART-1 and memory/recall responses to CMV pp65 were measured on day 10.
(§2) To identify antigen-specific T cell responses and the phenotype of the antigen specific cells, T cells were harvested on day 10 post-stimulation and incubated with peptide-pulsed T2 target cells at a ratio of 10:1 for 4 hour with Brefeldin A, Monensin (BD Biosciences) and CD107a PE-Cy5. […] After 4 hours of co-culture, responder T cells were stained for 10 minutes with the requisite peptide/pentamer reagent, then washed once and re-stained with CD8-Eflour605, CD45RA-FITC, and CD28-APC. Cells were then washed in PBS and stained with Aquadye (BD Biosciences) for analysis of viability. Labeled cells were then fixed and permeabilized in Fixation/Permeabilization solution (eBiosciences). Cells where then stained with IFN-γ-PECy7, TNFa-AF700 and IL-2-PerCPcy5.5 in permeabilization buffer and resuspended in FACs buffer prior to acquisition.
To assess the impact mTOR inhibition would have on CTL effector function in vitro, CMV pp65 specific CTLs were assayed for the ability to secret the cytokines IFN-y, TNF-α and IL-2, and express the degranulation marker CD107a, which serves as a surrogate marker to measure lytic activity. Data presented in FIG. 2A and FIG. 2B measures the absolute numbers of CMV […] specific CTLs that secrete IFN-y, TNF-α or IL-2, or express CD107a in response to CMV pp65 peptide pulsed target cells. The absolute numbers of CMV^+ CTLs shown have been corrected for background non-specific responses to display only the antigen specific response for each parameter.

[1] = system: healthy donor PBMC T cells; assay: Two-way MLR of HLA-mismatched healthy donor PBMCs with mRCC patient plasma with or without everolimus; assay type: cell-based, human; conditions: MLR 7 days, 2% mRCC patient plasma
Method: PBMCs and DCs were thawed and washed in PBS (Lonza) prior to counting. Post maturation electroporated monocyte-derived dendritic cells (PME-CD40L) were generated from healthy donors as described in DeBenedette MA. et al., J Immunol. 181(8):5296-5305 (2008) (incorporated herein by reference in its entirety), and were co-electroporated with RNA encoding the pp65 CMV protein and RNA encoding CD40L. Viable cell counts were performed using BD TruCount Absolute Counting Tubes and propidium iodide (BD Biosciences) by flow cytometry. PBMCs and DCs were re-suspended in X-Vivo15 (with gentamicin and phenol red) (Lonza) containing 10% normal human AB serum (Valley biomedical). […] Frozen PBMC vials from 2 HLA-mismatched healthy donors were thawed and counted. […] Purified Mouse anti-human CD3 (clone OKT3, BD Biosciences) was used to stimulate healthy donor PBMCs in culture.
Given the observation that patients enrolled in the ADAPT study who received everolimus as 2nd line therapy after receiving DC therapy had better clinical outcomes, the concept that everolimus may reverse the immune suppressive activity of mRCC patient plasma and augment T cell responses was investigated. HLA-mismatched healthy donor PBMCs were mixed and cultured for 7 days in the presence of 2% mRCC patient plasma and with or without 20 ng of everolimus added on day 0, and the frequency of CD28^+ memory T cells was determined. […] However, this restoration was not statistically significant (p<0.087) when the suppressive activity of plasma samples collected from six individual mRCC patients was tested (FIG. 17C). In contrast, an increase in the frequency of proliferating CD28^-CD4 T cells was […] with plasma addition, which could be reversed with the addition of everolimus (FIG. 17D). A similar pattern was detected for CD8 T cells (a decrease in the frequency of proliferating CD28^+ CD8 T cells (FIG. 17E) and increase in the frequency of proliferating CD28^-CD8 T cells (FIG. 17F)) in the presence of plasma, which the addition of everolimus could reverse. […] To expand the understating whereby everolimus can reduce the immune suppressive impact of mRCC, patient plasma PBMCs were stimulated with autologous DCs presenting the pp65 CMV antigen. Healthy donor PBMCs and autologous DCs were mixed and cultured for 6 days in the presence of 2% mRCC patient plasma and with or without 20 ng of everolimus added on day 0. A small but reproducible frequency of proliferating CD28^+ CD4 T cells was induced, but very few CD28^-CD4 T cells (FIG. 18A left panel), which is unlike the CD4 T cell response seen in the MLR. […] A low frequency of proliferating CD28^- CD4 T cells was detected, and everolimus has little impact on the frequency of these cells (FIG. 18D).
Given the observation that plasma suppression selectively impacts the frequency of CD28^+ T cells and everolimus mediates a reduced suppression of this memory phenotype, the CD28^+ T cell subset was further characterized. HLA-mismatched healthy donor PBMCs were mixed and cultured for 7 days in the presence of 2% mRCC patient plasma and with or without 20 ng of everolimus added on day 0. […] Both the expression of CD25 and CD28 receptors on T cells are critical for full differentiation of memory T cells.
To understand the ability of everolimus to restore the frequency of CD25^+CD28^+ T cells, the expression of both CD25 and CD28 on CD8 T cells stimulated in the MLR or with autologous DCs in the presence of mRCC patient plasma was measured by the geometric mean fluorescence intensity (MFI).

mRCC patients = assay: Retrospective Kaplan-Meier analysis of overall survival in the Phase 3 ADAPT trial; assay type: in vivo, human
[2] = than rapamycin (sirolimus); cited from earlier work
[3] = than rapamycin (sirolimus); cited from earlier work; remark: listed apart in the source
MART-1 specific CTLs = assay: MART-1 specific CTL effector function (IFN-γ, TNF-α, IL-2 secretion, CD107a expression); assay type: cell-based, human; conditions: at the higher concentrations tested; compared to untreated CTLs
Method: as §1
as §2, with “Cells where then stained with IFN-γ-PECy7, TNFa-AF700 and IL-2-PerCPcy5.5 in permeabilization buffer and resuspended in FACs buffer prior to acquisition.” left out

[4] = 20 ng everolimus, statistically significant, six plasma samples

CO[C@H]1C[C@@H]2CC[C@@H](C)[C@@](O)(O2)C(=O)C(=O)N2CCCC[C@H]2C(=O)O[C@H]([C@H](C)C[C@@H]2CC[C@@H](OCCO)[C@H](OC)C2)CC(=O)[C@H](C)/C=C(\C)[C@@H](O)[C@@H](OC)C(=O)[C@H](C)C[C@H](C)/C=C/C=C/C=C/1C [everolimus]
numbers of CMV+ CTL secreting a cytokine or expressing CD107a (CMV pp65 specific CTLs; 10 ng/ml, compared to untreated CTLs): increased
increase in effector function of CMV+ CTL (CMV pp65 specific CTLs; 1 µg/ml): maintained
expression of CD25 on CD8 T cells (MFI) ([1]; 20 ng everolimus): statistically significant increase
expression of CD28 on CD8 T cells (MFI) ([1]; 20 ng everolimus): statistically significant increase
plasma-induced change in frequency of proliferating CD28- CD4 T cells ([1]; 20 ng everolimus on day 0): reversed
frequency of proliferating CD28+ CD4 T cells reduced by mRCC patient plasma ([1]; 20 ng everolimus on day 0, not statistically significant (p<0.087), six plasma samples): partially restored
frequency of CD25+CD28- CD8 T cells among CD25+ CD8 T cells ([1]; 20 ng everolimus, p< 0.001): no longer represented the dominant population
frequency of CD25+CD28+ CD8 T cells ([1]; 20 ng everolimus, p< 0.0061): partial restoration
frequency of CD25+CD28+ CD4 T cells ([1]; 20 ng everolimus, p< 0.045): partial restoration
plasma-induced decrease in frequency of proliferating CD28+ CD8 T cells [1, 4]: reverse
plasma-induced increase in frequency of proliferating CD28- CD8 T cells [1, 4]: reverse
OS (mRCC patients; SOC arm, everolimus during follow up): 13.4 months
OS (mRCC patients; SOC arm, everolimus during treatment): 17.7 months
OS (mRCC patients; combination arm (DC therapy), everolimus during follow up phase): 25.7 months
OS (mRCC patients; combination arm (DC therapy), everolimus during treatment phase): 19.3 months
median OS (mRCC patients; everolimus during the follow up phase (n=42), combination n=22, everolimus after SOC therapy n=20): 13.4 months
median OS (mRCC patients; everolimus during the treatment phase (n=49), combination n=38, everolimus alone n=11): 17.8 months
median overall survival (OS) (mRCC patients; everolimus treated population (n=91), everolimus as 2nd line, combination n=60, everolimus alone n=31): 13.6 months
solubility in organic solvents [2]: enhanced
stability [2]: greater
side effects [3]: fewer
numbers of MART-1+ CTL secreting a cytokine or expressing CD107a (MART-1 specific CTLs): increased

From US20230061319A1, “METHODS OF TREATING TUMORS” (CoImmune, Inc., priority 2020, published 2023)
